The NIST ThermoML archive (doi:10.1021/je7001122)
Values joined by “and” are separate entries in the source; they are usually repeats but may differ in a detail not shown here. Equal values may be shown once.

Conditions: Liquid

CCCCCCCCCC [decane]
Transpiration method
Conditions | vapor or sublimation pressure [kPa]
323.94 K | 0.9556
353.57 K | 4.252
373.15 K | 10.05
402.36 K | 29.48
402.48 K | 29.36

CCCCCCCCCCCCCCCCCCCCCCCCCCCC [octacosane]
Transpiration method
Conditions | vapor or sublimation pressure
354.01 K | 2.14e-06 kPa
373.92 K | 1.77e-05 kPa and 1.8e-05 kPa
393.65 K | 0.000122 kPa and 0.000126 kPa
413.5 K | 0.000633 kPa and 0.000651 kPa and 0.00063 kPa
433.32 K | 0.00293 kPa
453.28 K | 0.01264 kPa
473.64 K | 0.04404 kPa
494.8 K | 0.1554 kPa
516.89 K | 0.4272 kPa

CCCCCCCCCCCCCCCCCCCCCCCC [tetracosane]
vapor or sublimation pressure
Conditions | Diaphragm manometer | Transpiration method
333.46 K | – | 4.3e-06 kPa
353.43 K | – | 4.35e-05 kPa
353.97 K | – | 4.5e-05 kPa
373.17 K | 0.000296 kPa | 0.000307 kPa
373.61 K | 0.000322 kPa | 0.000316 kPa
379.15 K | 0.000531 kPa | 0.000524 kPa
393.2 K | 0.001727 kPa | 0.001725 kPa and 0.001721 kPa
397.55 K | 0.002432 kPa | 0.002406 kPa
414.68 K | 0.008547 kPa | 0.00843 kPa
417.75 K | 0.01055 kPa | 0.0105 kPa
433.1 K | 0.02857 kPa | –
452.6 K | 0.08931 kPa | –
